The target in data set [1] is T1, aldose reductase (Rattus norvegicus, UniProt P07943).
T1 construct: partially purified enzyme from rat lens; from tissue; host or cells: rat lens
Put plainly: Inhibitory activity on aldose reductase in vivo (serum of orally dosed rats added to the aldose reductase assay). Conditions: oral, 0.5 ml added to assay. The procedure:
(§1) Aldose reductase preparation used in this test was partially purified enzyme from rat lens.
In order to estimate whether the compounds are available for inhibiting the enzyme in vivo, following preliminary test was carried out.
2 and 5 hours later, blood samples were taken from the rats. A 0.5 ml of serum, instead of the compound, was added to the assay system described in Experiment 1.

Data set [2] has as its target T1, aldose reductase. Put plainly: Inhibitory activity on aldose reductase in vitro. In kind it is biochemical. To be noted: partially purified enzyme from rat lens.
From the text: as §1

Data set [3] has as its system pentylenetetrazole convulsion. Put plainly: Anti-convulsion test (pentylenetetrazole convulsion). The format is in vivo. Conditions: ICR mice; Example 2 orally at 50, 200, 500 and 800 mg/kg; pentylenetetrazole 100 mg/kg i.p. 2 hours later. How it is done: Mice (ICR stain) were administered orally with the compound of Example 2 at various doses of 50, 200, 500 and 800 mg/kg and injected with pentylenetetrazole at a dose of 100 mg/kg intraperitoneally 2 hours later.

Data set [4] is described as follows: Acute toxicity on mice, oral. Conditions: mouse, in vivo. The procedure:
Acute toxicity was tested by oral administration with the compounds of this invention in fasted mice (ICR stain).

[5] abbreviates: serum taken 2 hr after administration, read-out: Inhibition % on aldose reductase in vivo, 2 hr after administration.
Where [6] appears, read: serum taken 5 hr after administration, read-out: Inhibition % on aldose reductase in vivo, 5 hr after administration.

Read-outs that look alike come from different tables or passages of the source. Some results are limits rather than exact numbers.

With `O=C1CC2(C(=O)N1)C(=O)N1CCCc3cccc2c31` (stereo not shown) [Example 1, 5',6'-Dihydrospiro[pyrrolidine-3,1'-[4H]pyrrolo[3,2,1-ij]quinoline]-2,2',5(1'H)-trione], the figures for the inhibition at 25 mg/kg in data set [1] (setting [5]) and in data set [1] (setting [6]) were 61.2% and 49.8%, respectively. The same molecule registered an IC50 in data set [2] of 6 µM.

For the molecule `O=C1CC2(C(=O)N1)C(=O)N1CCCc3cc(Cl)cc2c31` (stereo not shown) [Example 2, 8'-Chloro-5',6'-dihydrospiro[pyrrolidine-3,1'-[4H]pyrrolo[3,2,1-ij]quinoline]-2,2',5(1'H)-trione], the inhibition at 25 mg/kg in data set [1] (setting [5]) is 71.7%; in data set [1] (setting [6]) it was 68.5%. The molecule also showed an IC50 in data set [2] of 0.4 µM. In data set [3], the “anti-convulsion activity (suppressive effect on pentylenetetrazole convulsion)” value (“anti-convulsion activity” below) was “did not show any suppressive effect”.

As for `CC1CCc2cccc3c2N1C(=O)C31CC(=O)NC1=O` (stereo not shown) [Example 3], the inhibition at 25 mg/kg in data set [1] (setting [5]) worked out at 53.3%; in data set [1] (setting [6]), 42.6%. Besides, 9 µM corresponded to half-maximal inhibition in data set [2] (IC50).

With `CC1CCc2cc(Cl)cc3c2N1C(=O)C31CC(=O)NC1=O` (stereo not shown) [Example 4], the inhibition at 25 mg/kg in data set [1] (setting [5]) came out at 71.5%; in data set [1] (setting [6]), 70.2%. Besides, the half-inhibitory concentration (IC50) in data set [2] is 0.35 µM.

On to `O=C1CC2(C(=O)N1)C(=O)N1CCOc3cccc2c31` (stereo not shown) [Example 5], for which the inhibition at 25 mg/kg in data set [1] (setting [5]) is 52.3%; in data set [1] (setting [6]) it was 47.6%. The same molecule registered an IC50 in data set [2] of 5 µM.

With `O=C1CC2(C(=O)N1)C(=O)N1c3ccccc3Sc3cccc2c31` (stereo not shown) [Example 6, Spiro[pyrrolidine-3,2'-pyrrolo[3,2,1-kl]phenothiazine]-1',2,5(2'H)-trione], the inhibition at 25 mg/kg amounted to 11.8% in data set [1] (setting [5]) and 13.4% in data set [1] (setting [6]). The midpoint of inhibition in data set [2], the IC50, lay at 0.35 µM. For the same molecule, the LD50 in data set [4] (oral, fasted ICR mice) was more than 2000 mg/kg.

`Cc1cc2c3c(c1)C1(CC(=O)NC1=O)C(=O)N3CCC2` (stereo not shown) [Example 7, 5',6'-Dihydro-8'-methylspiro[pyrrolidine-3,1'-[4H]pyrrolo[3,2,1-ij]quinoline]-2,2',5(1'H)-trione]: the inhibition at 25 mg/kg in data set [1] (setting [5]) turned out to be 48.4%; in data set [1] (setting [6]), 33.8%. In addition, the IC50 in data set [2] came out at 2 µM.

As for `O=C1CC2(C(=O)N1)C(=O)N1CCOc3cc(Cl)cc2c31` (stereo not shown) [Example 8, 8'-Chloro-2',3'-dihydrospiro[pyrrolidine-3,6'-pyrrolo[1,2,3-de][1,4]benzoxazine]-2,5,5'(6'H9-trione], the inhibition at 25 mg/kg in data set [1] (setting [5]) was determined as 62.5%; in data set [1] (setting [6]) it was 61.4%. In addition, in data set [2], the midpoint of inhibition, the IC50, lay at 0.6 µM. This molecule also had a median lethal dose (LD50) in data set [4] (po) of more than 2000 mg/kg.

As for `O=C1CC2(C(=O)N1)C(=O)N1CCSc3cccc2c31` (stereo not shown) [Example 11], the results for the inhibition at 25 mg/kg in data set [1] (setting [5]) and in data set [1] (setting [6]) were 72.3% and 71.3%, respectively. The molecule further returned a concentration for half-maximal inhibition (IC50) in data set [2] of 2 µM.

On to `O=C1CC2(C(=O)N1)C(=O)N1CCOc3c(Cl)ccc2c31` (stereo not shown) [Example 12], for which the inhibition at 25 mg/kg was 72.3% in data set [1] (setting [5]) and 73.9% in data set [1] (setting [6]). The same molecule returned an IC50 in data set [2] of 1.5 µM. This molecule also yielded an LD50 in data set [4] (po) of more than 2000 mg/kg.

In the case of `O=C1CC2(C(=O)N1)C(=O)N1CCOc3c(Cl)c(Cl)cc2c31` (stereo not shown) [Example 13], the inhibition at 25 mg/kg in data set [1] (setting [5]) worked out at 78.2%; in data set [1] (setting [6]), 81.2%. In data set [2], this molecule yielded a 50% inhibitory concentration (IC50) of 0.2 µM. For the same molecule, the LD50 in data set [4] (po) is more than 2000 mg/kg.

With `O=C1CC2(C(=O)N1)C(=O)N1CCOc3cc(F)cc2c31` (stereo not shown) [Example 14], the inhibition at 25 mg/kg in data set [1] (setting [5]) amounted to 75.1%; in data set [1] (setting [6]) it was 75.8%. 0.7 µM corresponded to half-maximal inhibition in data set [2] (IC50). The molecule also showed a median lethal dose (LD50) in data set [4] (po) of more than 1000 mg/kg.

Turning to `O=C1CC2(C(=O)N1)C(=O)N1CCOc3c(F)c(F)cc2c31` (stereo not shown) [Example 15], the inhibition at 25 mg/kg amounted to 74.9% in data set [1] (setting [5]) and 75.2% in data set [1] (setting [6]). The molecule further displayed a half-maximal inhibitory concentration (IC50) in data set [2] of 0.7 µM.

`Cc1cc2c3c(c1)C1(CC(=O)NC1=O)C(=O)N3CCO2` (stereo not shown) [Example 16] registered a half-maximal inhibitory concentration (IC50) in data set [2] of 2.5 µM. Also, in data set [4] (po), the 50% lethal dose (LD50) is more than 2000 mg/kg.

Molecule `COc1cc2c3c(c1)C1(CC(=O)NC1=O)C(=O)N3CCO2` (stereo not shown) [Example 17] had an IC50 in data set [2] of 35 µM.

As for `O=C1NC(=O)[C@@]2(CCOc3ccc(F)cc32)N1` [Sorbinil, (4S)2,3-dihydro-6-fluorospiro[4H--1benzopyran-4,4 imidazolidine2',5dione, reference compound], the inhibition at 25 mg/kg is 79.8% in data set [1] (setting [5]) and 79.5% in data set [1] (setting [6]). Besides, the “anti-convulsion activity” value in data set [3] is recorded as “dose-dependent protection against the tonic convulsion”.

As to `O=C1NC(=O)C(c2ccccc2)(c2ccccc2)N1` [phenytoin], the “anti-convulsion activity” value in data set [3] is recorded as “dose-dependent protection against the tonic convulsion”.

The values above are taken from patent US4593092A, “Class of spiro-linked pyrrolidine-2,5-diones” (Kyorin Pharmaceutical Co., Ltd., priority 1983, dated 1986).
